The record followed here is US6326363A, “Methylenebisphosphonic acid derivatives” (Leiras Oy, priority 1997, dated 2001).

Each structure is given as a SMILES string. Counter-ions that a name gives are not always drawn. Like-named read-outs stand apart in the source and are kept apart here.

A short description of data set [1]: Water-solubility in phosphate buffer (50 mM, pH 7.4), HPLC. It counts as physicochemical. The note with it: for solubility at 2 h: 50 mm phosphate buffer, aqueous buffer. As for the experimental part: Clodronate and the prodrug molecules of clodronate were analysed with reverse phase/ion pair HPLC method (an isocratic program for clodronate; a gradient program for the simultaneous analysis of clodronate and a prodrug molecule), where detection of compounds was based on the measurement of light scattering caused by unevaporated compounds.
Equipment: Merck LaChrom HPLC (Merck Hitachi Ltd., Japan) Kromasil 100 RP-C8 (250×4.6 i.d., 5 μm) (Higgins Analytical Inc., USA)
Isocratic programe: methanol/ammoniumacetate buffer (3:97, pH 4.6), which contained 2.25% butylamine as ion pair reagent, flow 1.2 ml/min.
Gradient program: methanol (3%→40-60% during 1 min-6 min)/ammoniumacetate (pH 4.6), which contained 2.25% butylamine as ion pair reagent, flow 1.2 ml/min.
Detector: Sedex 55 light scattering detector (Sedere, France)
Settings: temperature of detector 70° C., pressure of evaporating gas (filtered air) 2.2 bar.
Water-solubilities of prodrug molecules were determined in phosphate buffer (50 mM, pH 7.4) at room temperature.
An excess of the compound to be tested was dissolved in about 5 ml of phosphate buffer. The suspension was stirred for 2 hours, the suspension was filtered, and the prodrug concentration of the filtrate was determined with HPLC. Water-solubility of clodronate was determined with the same method.

Data set [2] relates to PTH-induced bone resorption in mouse calvaria. Description: Inhibition of PTH-induced bone resorption in mouse calvaria in vitro. It counts as cell-based. As to conditions: 72 h, 100 μmol/l, PTH 10 nM, cultured for three days, read-out: Inhibition of resorption 100 (PTH-x)/PTH. As for the experimental part:
Newborn mice were labeled by a subcutaneous injection of ^45 Ca four days prior to sacrifice. Calvarial bone fragments were microdissected from the parietal bones, preincubated in culture medium with indomethacin, washed and then cultured for three days with and without a bisphosphonate prodrug. Bone resorption was stimulated by parathyroid hormone (PTH, 10 nM), and the effect on this stimulated resorption was measured. As presented in Table 4, an inhibition of resorption by the compounds was shown. The inhibition by the bisphosphonate prodrugs was even higher than with the parent drug.

A short description of data set [3]: Absorption and hydrolysis in vivo, oral bioavailability in fasted rats. The note with it: rat, 100 umol/kg, urine 72 hours, compared with intravenous, parent drug analyzed. On the procedure: Absorption and hydrolysis of the compounds in vivo was studied in fasted rats. Absorption was determined from the total amount excreted into urine during 72 hours after administration. For the determination of oral bioavailability excreted amount after oral administration was compared with that after intravenous administration. The urine samples were analyzed for the parent drug with mass-selective or nitrogen phosphorous-detection gas chromatography. The results presented in Table 5 show increased bioavailability of the bisphosphonate prodrugs compared with that of the parent compound.

A short description of data set [4]: Distribution coefficient octanol/buffer (log P). It counts as physicochemical. As to conditions: 1-octanol/buffer. As for the experimental part: The fat-solubility of the compounds of the test was studied by determining the distribution coefficients (P) of the compounds at pH 7.4 and 2.0. The analysis were carried out in a mixture of octanol and buffer.
When the octanol/buffer method of analysis was used, 1-octanol and the phosphate buffer used (50 mM, pH 7.40, μ=0.15) were saturated with each other by stirring a mixture of these overnight. Phases were separated and a prodrug standard solution with the desired concentration was made in the buffer phase. Appropriate volumes of 1-octanol and the standard solution of phosphate buffer were mixed and the mixture was shaken vigorously for 60 min. After shaking the phases were separated and the concentration of the compound to be studied was analysed from the buffer phase before and after distribution according to the above described HPLC method. Distribution coefficient P was calculated from the following formula: [formula]
C1 =concentration of the compound to be studied before distribution
Ca =concentration of the compound to be studied after distribution
Va =volume of the buffer phase
Vo =volume of the octanol phase

A short description of data set [5]: Chemical hydrolysis of prodrug molecules in phosphate buffer at 37° C. It counts as physicochemical. As to conditions: phosphate buffer 50 mM; for half-life: 50 mm phosphate buffer. On the procedure: Chemical hydrolysis of prodrug molecules was analysed in phosphate buffer (50 mM, μ=0.15) at pH 2.0 and 7.4 and at 37° C.
The compound to be studied was dissolved in 10.0 ml of phosphate buffer. The solution was stirred for 24-1000 h in a water bath with a magnetic stirrer, and samples were taken at regular intervals and analysed with HPLC. From the results a graph of pseudo I order was drawn, where the amount of the remaining compound was shown as a function of time. From the slope (kk) of the linear graph so obtained, a dissociation constant k (k=2.303×-kk) was calculated, wherefrom the half-life T1/2 (T1/2 =0.693/k) of the prodrug molecule under the circumstances in question was calculated.

Data set [6] in a line: Enzymatic hydrolysis of prodrug molecules in 80% plasma at pH 7.40 and 37° C. It counts as in vitro ADME. As to conditions: pH 7.4, 37° C.; for metabolised at 1 min: 1 minute, mean ± SE, n = 3, read-out: clodronate released in the first sample (1 minute). On the procedure: The enzyme hydrolysis rate of prodrug molecules was determined in a plasma/buffer mixture (80%-20%) at pH 7.40 and at 37° C.
The compound to be tested was dissolved in the buffer part and, after dissolution, plasma with a temperature of 37° C. was added. The solution was stirred with a magnetic stirrer and a sample of 0.25 ml was taken from the mixture at intervals of 1-360 min (depending on the molecule to be tested), to which sample 0.25 ml methanol (denatures proteins) was added. The sample was centrifuged, the clear supernatant was evaporated to dryness, the residue was dissolved in the eluent of the HPLC method, and the remaining prodrug concentration and the amount of the clodronate formed were analysed with HPLC. From the concentrations obtained a first-order graph was drawn (the remaining prodrug amount as a function of time), wherefrom a dissociation constant and half-life (T1/2) were determined.

[7] abbreviates: phosphate buffer 50 mM, pH 7.4, room temperature.
The mark [8] stands for this setting: pH 2.0, read-out: Log P (pH 2.0).
[9] abbreviates: 1-octanol/phosphate buffer, pH 7.4, read-out: Log P (pH 7.4).
Where [10] appears, read: μ=0.15, pH 2.0, 37° C., read-out: T1/2 pH 2.0 (converted).
The mark [11] stands for this setting: μ=0.15, pH 7.4, 37° C., read-out: T1/2 pH 7.4 (converted).

For `O=P([O-])([O-])C(Cl)(Cl)P(=O)(O)O.[Na+].[Na+]` [Clodronate, dichloromethylenebisphosphonic acid disodium salt, reference compound], in data set [1] (setting [7]), the solubility at 2 h was found to be 397 mg/mL. Moreover, in data set [1] (reason why the distribution coefficient cannot be determined), the “Water-solubility (in words)” value is on record as “extremely water-soluble”. In data set [2], the inhibition at 100 µM was 43.2%. Further, the bioavailability at 72 h in data set [3] turned out to be 2.17%.
For the compound `CCCCCCCCCCCCCCCCCC(=O)OP(=O)(O)C(Cl)(Cl)P(=O)(O)OC(=O)CCCCCCCCCCCCCCCCC` [Compound 4, P,P'-di(octadecanoyl)(dichloromethylene)bisphosphonate disodium salt], the inhibition at 100 µM in data set [2] worked out at 53.9%.
Consider `O=C(OP(=O)(O)C(Cl)(Cl)P(=O)(O)OC(=O)c1ccccc1)c1ccccc1` [Benzoe acid dianhydride (Ex. 7), P,P'-Di(benzoyl)(dichloromethylene)bisphosphonate disodium salt], for which, in data set [1] (setting [7]), the solubility at 2 h was determined as 6 mg/mL. In addition, the logD is -1.5 in data set [4] (setting [8]) and -2.4 in data set [4] (setting [9]). Further, the half-life in data set [5] (setting [10]) was 286 h; in data set [5] (setting [11]), 235 h. In addition, the metabolised at 1 min in data set [6] worked out at 91.4 ± 8.6%.
For the compound `CC(C)C(=O)OP(=O)(O)C(Cl)(Cl)P(=O)(O)OC(=O)C(C)C` [Compound 2, P,P-di(isobutyroyl)(dichloromethylene)bisphosphonate disodium salt], the inhibition at 100 µM in data set [2] worked out at 64.8%.
For `CCCC(=O)OP(=O)(O)C(Cl)(Cl)P(=O)(O)OC(=O)CCC` [Butanoic acid dianhydride (Ex. 7), P,P'-Dibutyroyl(dichloromethylene)bisphosphonate disodium salt], the solubility at 2 h in data set [1] (setting [7]) came out at 172 mg/mL. Further, the logD is -1.9 in data set [4] (setting [8]) and -2.4 in data set [4] (setting [9]). Further, the half-life in data set [5] (setting [10]) was 0.8 h. Moreover, the “T1/2 pH 7.4” value in data set [5] (μ=0.15, pH 7.4, 37° C.) came to 31.3 h. For the same compound, the metabolised at 1 min in data set [6] came out at 98 ± 6.9%.
On to `CC(C)(C)C(=O)OP(=O)(O)C(Cl)(Cl)P(=O)(O)OC(=O)C(C)(C)C` [Pivalyl acid dianhydride (Ex. 7), P,P'-Di(pivaloyl)(dichloromethylene)bisphosphonate disodium salt], for which, in data set [1] (phosphate buffer 50 mM, pH 7.4, room temperature, 120 min), the Water-solubility is reported as 23,5 mg/ml. Further, the values for the logD in data set [4] (setting [8]) and in data set [4] (setting [9]) were -2 and -2.3, respectively. Moreover, the half-life in data set [5] (setting [11]) was 790 h. For the same compound, in data set [5] (μ=0.15, pH 2.0, 37° C.), the “T1/2 pH 2.0” value worked out at 8.6 h. In addition, in data set [6], the “T1/2 Plasma” value stood at 3.3 ± 0.6 h.
As for `CCCCCCCCCCCCCC(=O)OP(=O)(O)C(Cl)(Cl)P(=O)(O)OC(=O)CCCCCCCCCCCCC` [Compound 3, P,P'-di(tetradecanoyl)(dichoromethylene)bisphosphonate disodium salt], the inhibition at 100 µM in data set [2] stood at 50.5%.
In data set [1] (setting [7]), `CC(=O)OP(=O)(O)C(Cl)(Cl)P(=O)(O)OC(C)=O` [Compound 1, P,P'-Diacetyl(dichloromethylene)bisphosphonate disodium salt] displayed a solubility at 2 h of 190 mg/mL. Also, the logD in data set [4] (setting [8]) was -1.4; in data set [4] (setting [9]), -2.2. The half-life in data set [5] (setting [10]) was 0.7 h. Moreover, the “T1/2 pH 7.4” value in data set [5] (μ=0.15, pH 7.4, 37° C.) turned out to be 15.2 h. In data set [6], the metabolised at 1 min is 102 ± 1.2%. The inhibition at 100 µM in data set [2] worked out at 48.7%.

One may read the solubility as how much of the substance goes into solution per volume. One may read the bioavailability as the share of a dose that reaches the circulation, judged against a reference dose that is usually intravenous.
